Measurements reported in ChEMBL document CHEMBL1142871, “Flipped out: structure-guided design of selective pyrazolylpyrrole ERK inhibitors” (J Med Chem, 2007).

Assays:
[1] = target: Mitogen-activated protein kinase 10 (Homo sapiens, UniProt P53779); assay: Inhibition of JNK3 at 10 nM by spectrophotometric coupled-enzyme assay
[2] = target: Mitogen-activated protein kinase 1 (Homo sapiens, UniProt P28482); assay: Inhibition of ERK2 by spectrophotometric coupled-enzyme assay
[3] = target: cAMP-dependent protein kinase (PKA) (Homo sapiens, UniProt P22694+P17612+P22612); assay: Inhibition of PKA; format: protein assay
[4] = target: T1, Receptor-type tyrosine-protein kinase FLT3 (Homo sapiens, UniProt P36888); assay: Inhibition of FLT3 kinase
T1 sequence (P36888 whole entry): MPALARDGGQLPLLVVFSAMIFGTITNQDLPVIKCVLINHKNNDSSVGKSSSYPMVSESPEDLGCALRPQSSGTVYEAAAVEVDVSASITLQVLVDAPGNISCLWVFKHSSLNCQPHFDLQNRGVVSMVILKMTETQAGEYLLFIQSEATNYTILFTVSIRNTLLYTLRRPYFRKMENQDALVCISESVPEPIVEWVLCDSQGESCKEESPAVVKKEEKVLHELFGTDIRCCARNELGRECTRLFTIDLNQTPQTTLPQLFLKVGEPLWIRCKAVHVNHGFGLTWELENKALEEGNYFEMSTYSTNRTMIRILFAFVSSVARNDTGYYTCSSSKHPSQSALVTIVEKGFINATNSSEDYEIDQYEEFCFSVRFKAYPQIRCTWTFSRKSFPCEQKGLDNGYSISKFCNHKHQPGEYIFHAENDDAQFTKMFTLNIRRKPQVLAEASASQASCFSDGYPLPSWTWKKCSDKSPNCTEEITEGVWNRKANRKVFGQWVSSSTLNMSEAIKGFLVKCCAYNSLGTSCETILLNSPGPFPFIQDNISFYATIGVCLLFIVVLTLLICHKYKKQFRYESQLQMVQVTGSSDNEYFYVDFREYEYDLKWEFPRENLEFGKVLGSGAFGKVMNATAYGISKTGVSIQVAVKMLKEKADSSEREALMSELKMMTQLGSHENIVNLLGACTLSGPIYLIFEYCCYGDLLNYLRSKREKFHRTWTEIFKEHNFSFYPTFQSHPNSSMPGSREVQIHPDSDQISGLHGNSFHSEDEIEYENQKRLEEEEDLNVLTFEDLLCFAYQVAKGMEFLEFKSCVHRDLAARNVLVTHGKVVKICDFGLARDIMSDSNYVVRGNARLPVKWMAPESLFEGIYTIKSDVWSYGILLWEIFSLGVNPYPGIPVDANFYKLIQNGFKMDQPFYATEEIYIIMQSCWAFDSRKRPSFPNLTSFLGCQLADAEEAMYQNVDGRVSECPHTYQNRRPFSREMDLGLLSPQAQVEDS

[5] = target: Proto-oncogene tyrosine-protein kinase Src (Homo sapiens, UniProt P12931); assay: Inhibition of SRC kinase
Chain of Proto-oncogene tyrosine-protein kinase Src (P12931 2-536 limits assumed): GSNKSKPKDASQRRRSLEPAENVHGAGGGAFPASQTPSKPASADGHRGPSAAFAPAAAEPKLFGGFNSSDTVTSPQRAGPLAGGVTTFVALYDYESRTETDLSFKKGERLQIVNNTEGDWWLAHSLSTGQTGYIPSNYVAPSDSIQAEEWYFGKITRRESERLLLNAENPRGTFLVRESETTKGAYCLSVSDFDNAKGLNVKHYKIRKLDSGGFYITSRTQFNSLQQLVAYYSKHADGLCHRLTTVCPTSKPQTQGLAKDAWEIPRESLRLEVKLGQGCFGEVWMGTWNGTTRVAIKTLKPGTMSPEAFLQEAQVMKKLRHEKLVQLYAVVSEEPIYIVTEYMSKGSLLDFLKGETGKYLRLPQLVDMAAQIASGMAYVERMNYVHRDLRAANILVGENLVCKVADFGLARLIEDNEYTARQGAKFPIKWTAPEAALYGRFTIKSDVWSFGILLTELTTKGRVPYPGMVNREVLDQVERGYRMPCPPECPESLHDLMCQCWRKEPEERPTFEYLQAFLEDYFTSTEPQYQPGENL

[6] = target: RAC-gamma serine/threonine-protein kinase (Homo sapiens, UniProt Q9Y243); assay: Inhibition of AKT3 kinase
Chain of RAC-gamma serine/threonine-protein kinase (Q9Y243 whole entry): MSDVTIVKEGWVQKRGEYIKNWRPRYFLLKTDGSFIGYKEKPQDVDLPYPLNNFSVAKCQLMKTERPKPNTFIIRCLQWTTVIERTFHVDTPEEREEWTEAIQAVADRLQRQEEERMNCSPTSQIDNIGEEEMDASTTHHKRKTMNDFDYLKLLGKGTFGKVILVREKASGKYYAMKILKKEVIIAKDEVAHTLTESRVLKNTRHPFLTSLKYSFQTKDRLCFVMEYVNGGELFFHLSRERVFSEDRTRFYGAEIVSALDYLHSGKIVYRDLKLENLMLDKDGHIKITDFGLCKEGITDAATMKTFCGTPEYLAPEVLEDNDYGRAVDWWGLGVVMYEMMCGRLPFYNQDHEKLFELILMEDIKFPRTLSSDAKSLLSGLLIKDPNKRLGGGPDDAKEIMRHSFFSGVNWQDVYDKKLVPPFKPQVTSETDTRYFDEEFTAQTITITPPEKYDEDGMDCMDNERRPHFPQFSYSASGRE

[7] = target: Glycogen synthase kinase-3 (Homo sapiens, UniProt P49840+P49841); assay: Inhibition of GSK3; format: protein assay
[8] = target: Vascular endothelial growth factor receptor 2 (Homo sapiens, UniProt P35968); assay: Inhibition of KDR kinase
Chain of Vascular endothelial growth factor receptor 2 (P35968 whole entry): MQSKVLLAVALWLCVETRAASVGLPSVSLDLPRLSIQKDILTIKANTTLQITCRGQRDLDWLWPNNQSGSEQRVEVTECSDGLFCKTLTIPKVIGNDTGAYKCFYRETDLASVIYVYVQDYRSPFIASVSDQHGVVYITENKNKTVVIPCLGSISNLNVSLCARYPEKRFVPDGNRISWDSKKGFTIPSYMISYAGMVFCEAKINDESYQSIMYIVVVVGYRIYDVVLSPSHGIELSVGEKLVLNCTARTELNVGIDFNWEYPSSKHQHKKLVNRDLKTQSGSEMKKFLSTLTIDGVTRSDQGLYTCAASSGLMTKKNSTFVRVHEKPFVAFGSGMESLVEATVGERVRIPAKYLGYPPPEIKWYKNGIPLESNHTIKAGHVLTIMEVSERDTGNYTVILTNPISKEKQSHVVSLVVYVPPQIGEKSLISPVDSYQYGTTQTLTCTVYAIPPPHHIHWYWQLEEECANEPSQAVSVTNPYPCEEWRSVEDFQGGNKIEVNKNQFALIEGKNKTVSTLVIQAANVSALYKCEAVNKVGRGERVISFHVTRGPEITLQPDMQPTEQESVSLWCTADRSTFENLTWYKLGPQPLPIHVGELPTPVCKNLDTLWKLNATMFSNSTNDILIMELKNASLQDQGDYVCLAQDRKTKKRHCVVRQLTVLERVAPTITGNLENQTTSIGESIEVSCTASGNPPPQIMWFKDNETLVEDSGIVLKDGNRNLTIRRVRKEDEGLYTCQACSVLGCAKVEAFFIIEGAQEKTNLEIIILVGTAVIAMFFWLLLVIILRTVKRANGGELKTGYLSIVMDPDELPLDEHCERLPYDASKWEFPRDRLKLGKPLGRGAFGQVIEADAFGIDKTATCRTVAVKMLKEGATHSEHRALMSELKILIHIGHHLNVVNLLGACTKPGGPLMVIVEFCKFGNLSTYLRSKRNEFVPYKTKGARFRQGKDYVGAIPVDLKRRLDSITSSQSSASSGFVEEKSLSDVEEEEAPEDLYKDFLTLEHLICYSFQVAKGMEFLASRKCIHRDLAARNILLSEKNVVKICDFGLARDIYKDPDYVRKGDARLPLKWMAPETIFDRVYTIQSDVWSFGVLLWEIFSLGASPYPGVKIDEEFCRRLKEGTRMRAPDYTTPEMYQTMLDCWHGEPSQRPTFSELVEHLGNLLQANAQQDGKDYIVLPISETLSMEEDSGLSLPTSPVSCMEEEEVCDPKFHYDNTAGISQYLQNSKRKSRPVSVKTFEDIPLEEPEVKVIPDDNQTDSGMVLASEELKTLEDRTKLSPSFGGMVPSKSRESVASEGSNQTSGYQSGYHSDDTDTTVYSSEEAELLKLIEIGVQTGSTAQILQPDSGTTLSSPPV

Aurora kinase A = target: T2, Aurora kinase A (Homo sapiens, UniProt O14965); assay: Inhibition of AURA kinase
T2 sequence (O14965 whole entry): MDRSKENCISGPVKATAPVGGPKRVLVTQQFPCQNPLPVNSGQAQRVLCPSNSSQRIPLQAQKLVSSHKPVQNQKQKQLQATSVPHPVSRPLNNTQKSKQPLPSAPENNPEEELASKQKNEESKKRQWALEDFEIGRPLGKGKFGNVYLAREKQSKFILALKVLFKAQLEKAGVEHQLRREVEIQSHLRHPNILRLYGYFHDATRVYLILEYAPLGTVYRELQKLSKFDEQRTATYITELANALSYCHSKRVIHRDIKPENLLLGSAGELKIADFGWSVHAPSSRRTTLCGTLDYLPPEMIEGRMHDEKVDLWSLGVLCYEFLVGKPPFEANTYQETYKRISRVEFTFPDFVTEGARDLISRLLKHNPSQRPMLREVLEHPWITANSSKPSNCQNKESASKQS

[9] = target: Cyclin-dependent kinase 2 (Homo sapiens, UniProt P24941); assay: Inhibition of CDK2
[10] = target: Dual specificity mitogen-activated protein kinase kinase 1 (Homo sapiens, UniProt Q02750); assay: Inhibition of MEK1
Chain of Dual specificity mitogen-activated protein kinase kinase 1 (Q02750 whole entry): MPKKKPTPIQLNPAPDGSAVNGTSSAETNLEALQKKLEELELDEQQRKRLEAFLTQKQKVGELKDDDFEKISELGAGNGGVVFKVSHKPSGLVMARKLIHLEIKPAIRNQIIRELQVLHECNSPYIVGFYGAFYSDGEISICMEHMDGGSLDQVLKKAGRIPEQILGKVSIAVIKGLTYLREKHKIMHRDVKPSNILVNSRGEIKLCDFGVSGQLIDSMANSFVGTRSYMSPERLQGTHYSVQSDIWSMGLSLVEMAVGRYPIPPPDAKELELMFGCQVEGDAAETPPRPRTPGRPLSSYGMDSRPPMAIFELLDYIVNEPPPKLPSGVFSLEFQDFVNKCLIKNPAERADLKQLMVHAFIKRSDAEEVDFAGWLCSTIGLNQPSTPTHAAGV

[11] = target: Mitogen-activated protein kinase 14 (Homo sapiens, UniProt Q16539); assay: Inhibition of p38 alpha kinase
Chain of Mitogen-activated protein kinase 14 (Q16539 whole entry): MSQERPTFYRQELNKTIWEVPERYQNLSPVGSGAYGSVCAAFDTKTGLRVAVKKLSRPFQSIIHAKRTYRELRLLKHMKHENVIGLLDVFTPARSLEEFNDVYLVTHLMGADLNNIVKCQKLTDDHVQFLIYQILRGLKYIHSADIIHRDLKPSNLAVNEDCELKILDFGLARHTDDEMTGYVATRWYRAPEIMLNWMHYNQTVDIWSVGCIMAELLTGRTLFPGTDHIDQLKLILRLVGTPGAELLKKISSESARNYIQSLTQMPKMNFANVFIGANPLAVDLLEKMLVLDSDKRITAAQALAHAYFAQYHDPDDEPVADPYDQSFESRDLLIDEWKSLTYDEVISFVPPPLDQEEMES

COLO 205 = assay: Antiproliferative activity against Colo205 cells measured by [3H]thymidine incorporation after 48 hrs; format: functional, cell-based; settings: Homo sapiens

Chain of Mitogen-activated protein kinase 1 (P28482 whole entry): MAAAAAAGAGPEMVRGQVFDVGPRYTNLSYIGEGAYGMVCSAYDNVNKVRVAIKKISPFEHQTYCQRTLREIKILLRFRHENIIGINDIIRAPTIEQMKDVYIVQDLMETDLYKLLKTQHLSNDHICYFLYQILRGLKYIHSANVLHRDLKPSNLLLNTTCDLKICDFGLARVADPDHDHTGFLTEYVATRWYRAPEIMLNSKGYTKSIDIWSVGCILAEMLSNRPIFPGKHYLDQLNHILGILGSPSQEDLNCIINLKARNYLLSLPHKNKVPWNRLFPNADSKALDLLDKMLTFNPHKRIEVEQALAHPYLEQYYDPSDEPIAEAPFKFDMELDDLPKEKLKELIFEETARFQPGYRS
Chain of Mitogen-activated protein kinase 10 (P53779 whole entry): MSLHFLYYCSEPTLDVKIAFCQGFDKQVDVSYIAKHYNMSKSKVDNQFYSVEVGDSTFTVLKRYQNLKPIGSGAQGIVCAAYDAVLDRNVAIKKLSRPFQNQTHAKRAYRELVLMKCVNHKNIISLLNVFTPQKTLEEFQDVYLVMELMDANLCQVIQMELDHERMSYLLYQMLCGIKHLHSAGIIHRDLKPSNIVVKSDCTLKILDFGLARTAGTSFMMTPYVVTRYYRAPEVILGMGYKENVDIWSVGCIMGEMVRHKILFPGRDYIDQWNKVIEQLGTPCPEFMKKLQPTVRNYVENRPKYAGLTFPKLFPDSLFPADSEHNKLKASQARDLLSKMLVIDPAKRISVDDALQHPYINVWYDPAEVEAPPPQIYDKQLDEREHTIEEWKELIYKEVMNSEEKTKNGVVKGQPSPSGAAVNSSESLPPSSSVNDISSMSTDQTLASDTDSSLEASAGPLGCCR

Structure (SMILES) | Ki [1] [nM] | Ki [2] [nM] | further results
CN(C)C(=O)c1cc(-c2n[nH]cc2-c2ccccc2)c[nH]1 | > 4000 |  | 
O=C(NC(CO)c1cccc(F)c1)c1cc(-c2[nH]ncc2-c2cccc(Cl)c2)c[nH]1 (stereo not given) | 3000 | 24 | 
O=C(NCCc1cccnc1)c1cc(-c2[nH]ncc2-c2cccc(Cl)c2)c[nH]1 | > 4000 | 330 | 
CN(Cc1ccccc1)C(=O)c1cc(-c2[nH]ncc2-c2cccc(Cl)c2)c[nH]1 | > 4000 | 440 | 
O=C(N[C@@H](CO)c1ccc(F)c(Cl)c1)c1cc(-c2n[nH]cc2-c2cccc(Cl)c2)c[nH]1 | > 4000 | 150 | 
O=C(N[C@H](CO)c1ccccc1)c1cc(-c2[nH]ncc2-c2cccc(Cl)c2)c[nH]1 | 2800 |  | 
O=C(NOCc1ccccc1)c1cc(-c2[nH]ncc2-c2cccc(Cl)c2)c[nH]1 | 2900 |  | 
O=C(NC(CO)c1ccccc1F)c1cc(-c2[nH]ncc2-c2cccc(Cl)c2)c[nH]1 (stereo not given) | 3100 | 240 | 
O=C(NC(CO)c1ccc(F)c(Cl)c1)c1cc(-c2[nH]ncc2-c2cccc(Cl)c2)c[nH]1 (stereo not given) |  | 6 | 
CCN(C)C(=O)c1cc(-c2n[nH]cc2-c2cccc(Cl)c2)c[nH]1 | > 4000 |  | 
NC(=O)[C@@H](NC(=O)c1cc(-c2[nH]ncc2-c2cccc(Cl)c2)c[nH]1)c1ccccc1 | 3300 | 510 | 
O=C(N[C@H](CO)c1ccc(F)c(Cl)c1)c1cc(-c2n[nH]cc2-c2cccc(Cl)c2)c[nH]1 | > 4000 |  | Ki [3]: 390 nM; Ki [4]: 750 nM; Ki [5]: 1100 nM; Ki [6]: 1800 nM; Ki [7]: 3300 nM; Ki [8]: 3900 nM; Ki (Aurora kinase A): > 4000 nM; Ki [9]: > 4000 nM; Ki [10]: > 4000 nM; Ki [11]: > 4000 nM; IC50 (COLO 205): 540 nM
O=C(c1cc(-c2[nH]ncc2-c2cccc(Cl)c2)c[nH]1)N1CCc2ccccc2C1 | > 4000 | 510 | 
O=C(NC(CO)c1cc(Cl)cc(Cl)c1)c1cc(-c2n[nH]cc2-c2cccc(Cl)c2)c[nH]1 (stereo not given) | 3400 | 7 | 
O=C(N[C@H](C(=O)O)c1ccccc1)c1cc(-c2n[nH]cc2-c2cccc(Cl)c2)c[nH]1 | > 4000 | > 5000 | 
O=C(NC(CO)c1ccc(F)cc1)c1cc(-c2n[nH]cc2-c2cccc(Cl)c2)c[nH]1 (stereo not given) | > 4000 | 63 | 
O=C(NCc1ccc(F)c(F)c1)c1cc(-c2n[nH]cc2-c2cccc(Cl)c2)c[nH]1 | 790 | 40 | 
O=C(NC(CO)c1ccc(Cl)cc1)c1cc(-c2n[nH]cc2-c2cccc(Cl)c2)c[nH]1 (stereo not given) | 2500 | 14 | 
O=C(NC(CO)c1ccc(C(F)(F)F)cc1)c1cc(-c2n[nH]cc2-c2cccc(Cl)c2)c[nH]1 (stereo not given) | 2700 | 44 | 
C[C@H](NC(=O)c1cc(-c2n[nH]cc2-c2cccc(Cl)c2)c[nH]1)c1ccccc1 | > 4000 | 660 | 
COc1ccc(CNC(=O)c2cc(-c3n[nH]cc3-c3cccc(Cl)c3)c[nH]2)cc1 | 840 | 490 | 
O=C(NC1c2ccccc2CC1O)c1cc(-c2[nH]ncc2-c2cccc(Cl)c2)c[nH]1 (stereo not given) | 3200 | 4000 | 
O=C(NC(CO)c1ccc(F)c(F)c1)c1cc(-c2n[nH]cc2-c2cccc(Cl)c2)c[nH]1 (stereo not given) | 2800 | 22 | 
O=C(c1cc(-c2[nH]ncc2-c2cccc(Cl)c2)c[nH]1)N1CCCC1 | 1800 | 200 | 
O=C(NCC1CCCO1)c1cc(-c2[nH]ncc2-c2cccc(Cl)c2)c[nH]1 (stereo not given) | 2700 |  | 
C[C@@H](NC(=O)c1cc(-c2n[nH]cc2-c2cccc(Cl)c2)c[nH]1)c1ccccc1 | 3100 | 100 | 
CCN1CCCC1CNC(=O)c1cc(-c2n[nH]cc2-c2cccc(Cl)c2)c[nH]1 (stereo not given) | > 4000 | > 10000 | 
CNC(=O)[C@@H](NC(=O)c1cc(-c2[nH]ncc2-c2cccc(Cl)c2)c[nH]1)c1ccccc1 | 3900 | 2300 | 
